Where “and” joins values, the source holds several entries; their conditions need not be identical. Equal values may be shown once. Read-outs that look alike come from different tables or passages of the source.
Legend:
Format in all cases: cell-based
[1] = cytotoxicity in Drosophila DL1 cells; conditions: Drosophila, DL1 cells (embryonic macrophage-derived), DL1 cells
Procedure: (§1) We screened the DDPs on the Drosophila assay system for cytotoxicity, inhibitory activity of innate immune signalling and insecticidal activity. The cytotoxicity of the DDPs was evaluated using two cell lines, embryonic macrophage-derived DL1 cells[58]–[60] and larval blood cell-derived l(2)mbn cells, and their IC50 values are listed in Supplementary Table 23.

[2] = test system: DL1 cells; experiment: cytotoxicity in Drosophila DL1 cells; conditions: DL1 cells; for IC50: Drosophila melanogaster, cytotoxicity
Procedure: as §1

[3] = cytotoxicity in Drosophila l(2)mbn cells; conditions: Drosophila, l(2)mbn cells (larval blood cell-derived)
Procedure: as §1

[4] = test system: l(2)mbn cells; experiment: cytotoxicity in Drosophila l(2)mbn cells; conditions: for Luminescence Raw1: replicate 1; for Luminescence Raw2: replicate 2; for IC50: Drosophila melanogaster, cytotoxicity
Procedure: as §1

[5] = test system: human immunodeficiency virus-1 (HIV-1); experiment: anti-HIV MAGI assay; conditions: Human immunodeficiency virus 1, MAGI, anti-HIV
Text: We examined the inhibitory activities of DDPs against various species of bacteria (both gram-negative and gram-positive bacteria), fungi and viruses. […] In contrast, preliminary screening of the DDPs for anti-viral agents with hepatitis B virus (HBV), measles virus (MV), Epstein-Barr virus (EBV), herpes simplex virus (HSV) and human immunodeficiency virus-1 (HIV-1) indicated their selective inhibition of HIV.

[6] = test system: MAGI cells; experiment: cytotoxicity in the anti-HIV assay (CC50); conditions: for Cytotoxicity: single determinations
[7] = replicate 1, relative to DMSO 1%, read-out: % viability, viability 1
[8] = replicate 2, relative to DMSO 1%, read-out: % viability, viability 2
[9] = average of two replicates, read-out: IC50 Average
[10] = replicate 1, read-out: IC50 (1)
[11] = replicate 2, read-out: IC50 (2)

## C=C1CC[C@@H]2[C@](C)(CC[C@H]3O[C@H](C=C(C)C)C[C@@]23C)[C@@H]1Cc1c(OC)oc(CO)c(C)c1=O [Compound 20]
[1]; [7]
  viability at 0.04 µM: 191%
  viability at 0.2 µM: 171%
  viability at 1 µM: 20.6%
  viability at 4 µM: 20.4%
  viability at 10 µM: 20.5%
  viability at 20 µM: 20.5%
[1]; [8]
  viability at 0.04 µM: 209%
  viability at 0.2 µM: 166%
  viability at 1 µM: 19.9%
  viability at 4 µM: 21.2%
  viability at 10 µM: 19.2%
  viability at 20 µM: 24.6%
[2]; 0.04 µM, replicate 1
  Luminescence Raw1: 2619350
[2]; 0.04 µM, replicate 2
  Luminescence Raw2: 2864984
[2]; 0.2 µM, replicate 1
  Luminescence Raw1: 2345231
[2]; 0.2 µM, replicate 2
  Luminescence Raw2: 2278506
[2]; 1 µM, replicate 1
  Luminescence Raw1: 282109
[2]; 1 µM, replicate 2
  Luminescence Raw2: 273095
[2]; 4 µM, replicate 1
  Luminescence Raw1: 279585
[2]; 4 µM, replicate 2
  Luminescence Raw2: 290402
[2]; 10 µM, replicate 1
  Luminescence Raw1: 280667
[2]; 10 µM, replicate 2
  Luminescence Raw2: 263720
[2]; 20 µM, replicate 1
  Luminescence Raw1: 281027
[2]; 20 µM, replicate 2
  Luminescence Raw2: 336916
[2]; [9]
  IC50: 269 nM
[2]; average±SEM, read-out: IC50
  IC50: 270 ± 30 nM
[2]; [10]
  IC50: 299 nM
[2]; [11]
  IC50: 238 nM
[3]; [7]
  viability at 0.04 µM: 95.7%
  viability at 0.2 µM: 106%
  viability at 1 µM: 71.1%
  viability at 4 µM: 1.55%
  viability at 10 µM: 1.88%
  viability at 20 µM: 1.4%
[3]; [8]
  viability at 0.04 µM: 102%
  viability at 0.2 µM: 112%
  viability at 1 µM: 80.9%
  viability at 4 µM: 2.17%
  viability at 10 µM: 1.76%
  viability at 20 µM: 2.05%
[4]; 0.04 µM
  Luminescence Raw1: 6010744
  Luminescence Raw2: 6416731
[4]; 0.2 µM
  Luminescence Raw1: 6637959
  Luminescence Raw2: 7047592
[4]; 1 µM
  Luminescence Raw1: 4464964
  Luminescence Raw2: 5080853
[4]; 4 µM
  Luminescence Raw1: 97218
  Luminescence Raw2: 136159
[4]; 10 µM
  Luminescence Raw1: 118130
  Luminescence Raw2: 110559
[4]; 20 µM
  Luminescence Raw1: 87844
  Luminescence Raw2: 128947
[4]; [9]
  IC50: 1450 nM
[4]; average±SEM, read-out: IC50
  IC50: 1450 ± 130 nM
[4]; [10]
  IC50: 1320 nM
[4]; [11]
  IC50: 1580 nM
[5]; average of numeric determinations, read-out: Avg. EC50
  EC50: 4.07 µM
[6]
  Cytotoxicity: >10 µM

## C=C1CCC2C3(C)CC(C=C(C)C)OC3CCC2(C)C1Cc1c(OC)oc(C)c(C)c1=O (stereo not drawn) [Compound 23]
[1]; [7]
  viability at 0.04 µM: 80.6%
  viability at 0.2 µM: 21.3%
  viability at 1 µM: 7.72%
  viability at 4 µM: 8.03%
  viability at 10 µM: 4.94%
  viability at 20 µM: 8.44%
[1]; [8]
  viability at 0.04 µM: 110%
  viability at 0.2 µM: 27.7%
  viability at 1 µM: 9.91%
  viability at 4 µM: 7.75%
  viability at 10 µM: 5.43%
  viability at 20 µM: 8.21%
[2]; 0.04 µM, replicate 1
  Luminescence Raw1: 1660895
[2]; 0.04 µM, replicate 2
  Luminescence Raw2: 2275454
[2]; 0.2 µM, replicate 1
  Luminescence Raw1: 438070
[2]; 0.2 µM, replicate 2
  Luminescence Raw2: 571485
[2]; 1 µM, replicate 1
  Luminescence Raw1: 158989
[2]; 1 µM, replicate 2
  Luminescence Raw2: 204060
[2]; 4 µM, replicate 1
  Luminescence Raw1: 165479
[2]; 4 µM, replicate 2
  Luminescence Raw2: 159710
[2]; 10 µM, replicate 1
  Luminescence Raw1: 101660
[2]; 10 µM, replicate 2
  Luminescence Raw2: 111756
[2]; 20 µM, replicate 1
  Luminescence Raw1: 173772
[2]; 20 µM, replicate 2
  Luminescence Raw2: 169085
[2]; [9]
  IC50: 130 nM
[2]; average±SEM, read-out: IC50
  IC50: 130 ± 40 nM
[2]; [10]
  IC50: 94 nM
[2]; [11]
  IC50: 167 nM
[3]; [7]
  viability at 0.04 µM: 122%
  viability at 0.2 µM: 126%
  viability at 1 µM: 44.7%
  viability at 4 µM: 8.9%
  viability at 10 µM: 7.01%
  viability at 20 µM: 6.91%
[3]; [8]
  viability at 0.04 µM: 135%
  viability at 0.2 µM: 141%
  viability at 1 µM: 72.6%
  viability at 4 µM: 9.14%
  viability at 10 µM: 6.89%
  viability at 20 µM: 6.4%
[4]; 0.04 µM
  Luminescence Raw1: 3121216
  Luminescence Raw2: 3467512
[4]; 0.2 µM
  Luminescence Raw1: 3228350
  Luminescence Raw2: 3607479
[4]; 1 µM
  Luminescence Raw1: 1147296
  Luminescence Raw2: 1863873
[4]; 4 µM
  Luminescence Raw1: 228513
  Luminescence Raw2: 234642
[4]; 10 µM
  Luminescence Raw1: 179837
  Luminescence Raw2: 176952
[4]; 20 µM
  Luminescence Raw1: 177313
  Luminescence Raw2: 164332
[4]; [9]
  IC50: 1580 nM
[4]; average±SEM, read-out: IC50
  IC50: 1580 ± 350 nM
[4]; [10]
  IC50: 1230 nM
[4]; [11]
  IC50: 1920 nM
[5]; MAGI assay, read-out: EC50
  EC50: < 0.2 µM
[6]; average of numeric determinations
  Cytotoxicity Avg.: 5.617 µM
[6]
  Cytotoxicity: 5.032 µM and 7.537 µM and 4.281 µM

Reference: PMC7156458, “Synthetic biology based construction of biological activity-related library of fungal decalin-containing diterpenoid pyrones” (Nature Communications, 2020)
